Here are results for two compounds from patent US7101848B2, “Bicyclic oligopeptides” (Boehringer Ingelheim Pharma GmbH & Co. KG, priority 2002, dated 2006).

≈ marks a conversion by molar mass, not a printed value. Where a SMILES comes first, the peptide text is derived from it. Bridges are numbered along the chain shown (N, C = ends).

The nature of one data set: Solubility in buffer. The class given is physicochemical. The text has this: and the following solubilities:
Data set [1] is described as follows: Metabolic stability with dog liver cytosol. It counts as in vitro ADME. To be noted: 37° C., up to 45 min. On the procedure: (§1) Incubations with preparations of microsomes and cytosol and with plasma under conditions as described below are suitable to investigate the metabolic stability of test compounds (e.g. oxidative metabolism reactions and hydrolysis by esterases). The metabolic stability of the test compounds of examples 1 and 2 is investigated in liver microsomes and cytosol of humans, dogs and rats and in plasma of humans and rats.
(§2) Incubations of test compounds (final concentration: 1 μM) are performed with liver microsomes and cytosol (0.5 mg protein/ml) in Tris buffer (Tris-(hydroxymethyl)-aminomethane) pH 7.4 (0.1 M) containing magnesium chloride (5 mM) at 37° C. for up to 45 min in a total volume of 100 μl. The reaction is initiated by addition of β-nicotinamide adenine dinucleotide phosphate, reduced form (NADPH, 1 mM) and terminated by addition of acetonitrile. After vortex mixing and centrifugation the supernatants are analyzed.
(§3) The samples are analyzed by on-line solid phase extraction and reversed phase HPLC coupled to electro-spray ionization tandem mass spectrometry. The measurements are performed on a triple quad mass spectrometer Quattro II (Micromass, Manchester, UK). The instrument operates at nominal mass resolution in SIR-mode. The analytes are quantified by detection of their quasimolecular ions [M+2H]^2+ m/z 1019 (Example 1) and m/z 1026 (Example 2).

The nature of data set [2]: Stability in human plasma. The class given is in vitro ADME. To be noted: plasma (heparin), pH 7.4, substrate 1 μM, 37° C., up to 45 min, read-out: Half-lives (t½). The protocol: as §1
(§4) Incubations of test substrates (final concentration: 1 μM) are performed with human and rat plasma (heparin) containing 0.1 M Tris buffer pH 7.4. The reaction is initiated by addition of the test compound at 37° C. for up to 45 min and terminated by addition of acetonitrile. After vortex mixing and centrifugation the supernatants are analyzed.
as §3

Data set [3] is described as follows: Metabolic stability with human liver cytosol. It counts as in vitro ADME. To be noted: 37° C., up to 45 min. On the procedure:
as §1, §2, §3

A further data set is described as follows: Stability in rat plasma. The class given is in vitro ADME. To be noted: substrate 1 μM, 37° C., up to 45 min. The protocol:
as §1, §4, §3

Data set [4] is described as follows: Metabolic stability with rat liver microsomes. It counts as in vitro ADME. To be noted: Rat Micros; substrate 1 μM, 37° C., up to 45 min. On the procedure: as §1, §2, §3
(Liver microsomes are a subcellular fraction often used to study metabolism.)

The nature of data set [5]: Metabolic stability with dog liver microsomes. It counts as in vitro ADME. To be noted: Dog Micros; substrate 1 μM, 37° C., up to 45 min. The protocol: as §1, §2, §3
Data set [6] is described as follows: Metabolic stability with human liver microsomes. The class given is in vitro ADME. To be noted: Human Micros; substrate 1 μM, 37° C., up to 45 min. The protocol: as §1, §2, §3
Data set [7] is described as follows: Metabolic stability with rat liver cytosol. The class given is in vitro ADME. To be noted: 37° C., up to 45 min. The protocol: as §1, §2, §3
Setting [8] is: liver cytosol, pH 7.4, substrate 1 μM, read-out: Half-lives (t½).

Usually solubility stands for the concentration that dissolves in the medium under given conditions. Low values mean little dissolved substance, high ones much dissolved substance. For the compound `CC[C@H](C)[C@@H]1NC(=O)[C@@H]2CC(=O)NCC(=O)N[C@@H](CC(C)C)C(=O)N3CCC[C@H]3C(=O)N[C@@H](Cc3c[nH]c4ccccc34)C(=O)NCC(=O)N[C@@H](CSSC[C@@H](C(=O)O)NC(=O)[C@H](C)NC(=O)[C@H](Cc3c[nH]c4ccccc34)NC(=O)[C@@H]3CCCN3C(=O)[C@H]([C@@H](C)O)NC(=O)[C@H](CC(N)=O)NC(=O)[C@H](Cc3c[nH]c4ccccc34)NC(=O)CNC(=O)[C@@H]3CCCN3C1=O)C(=O)N1CCC[C@H]1C(=O)N[C@@H](CO)C(=O)N2` [Example 1] (GLPWGCPSDIPGWNTPWAC-OH; disulfide 6-19; lactam N-9), the solubility in the data set “Solubility in buffer” (Buffer pH 3.0) worked out at 3 µg/mL (≈ 1.47 µM); in the data set “Solubility in buffer” (Buffer pH 7.4), 120 µg/mL (≈ 58.9 µM); in “Solubility in buffer” (Buffer pH 10.0), 92 µg/mL (≈ 45.2 µM). In addition, the “Half-lives (t½)” value (in data set [1] (substrate 1 μM); in [3] (substrate 1 μM); in “Stability in rat plasma”; in [4]; in [5]; in data set [6]) was “stable” throughout. Moreover, in [7] (substrate 1 μM), the “Half-lives (t½)” value is listed as “stable”. The half-life at 1 μM in data set [2] was determined as 3.03 h.

`CC[C@H](C)[C@@H]1NC(=O)[C@@H]2CC(=O)NCC(=O)N[C@@H](CC(C)C)C(=O)N3CCC[C@H]3C(=O)N[C@@H](Cc3c[nH]c4ccccc34)C(=O)NCC(=O)N[C@@H](CSSC[C@@H](C(=O)OC)NC(=O)[C@H](C)NC(=O)[C@H](Cc3c[nH]c4ccccc34)NC(=O)[C@@H]3CCCN3C(=O)[C@H]([C@@H](C)O)NC(=O)[C@H](CC(N)=O)NC(=O)[C@H](Cc3c[nH]c4ccccc34)NC(=O)CNC(=O)[C@@H]3CCCN3C1=O)C(=O)N1CCC[C@H]1C(=O)N[C@@H](CO)C(=O)N2` [Example 2] (GLPWGCPSDIPGWNTPWAC-OMe; disulfide 6-19; lactam N-9): the solubility in “Solubility in buffer” (Buffer pH 3.0) was 3 µg/mL (≈ 1.46 µM); in the data set “Solubility in buffer” (Buffer pH 7.4) it was 2 µg/mL (≈ 0.975 µM); in the data set “Solubility in buffer” (Buffer pH 10.0) it was 4 µg/mL (≈ 1.95 µM). The half-life at 1 μM in data set [1] (setting [8]) turned out to be 2.33 h; in [2], 3 h; in [3] (setting [8]), 2.03 h; in [7] (setting [8]), 1.22 h. For the same compound, the “Half-lives (t½)” value (in the data set “Stability in rat plasma”; in data set [4]; in [5]; in [6]) was “stable” throughout.
